System: MCF-7 breast cancer cells
Assay: Microarray gene expression analysis (Agilent whole human genome 4 x 44K; compound vs DMSO, LIMMA log2 fold change)
Assay type: cell-based
Conditions: Apoptosis genes

SMILES: Oc1cccc(-c2nc(N3CCOCC3)c3oc4ncccc4c3n2)c1 [PI-103]
- KALRN log2FC (Gene 8997): 0.194
- SOCS3 log2FC (Gene 9021): -0.840
- BRSK2 log2FC (Gene 9024): -0.160
- UBE2M log2FC (Gene 9040): -0.417
- SART1 log2FC (Gene 9092): -0.00235
- DNAJA3 log2FC (Gene 9093): 0.121
- RABEP1 log2FC (Gene 9135): 0.492
- ARHGEF2 log2FC (Gene 9181): -0.509
- DEDD log2FC (Gene 9191): -0.033
- AURKB log2FC (Gene 9212): -0.231
- FAIM3 log2FC (Gene 9214): -0.530
- DLG5 log2FC (Gene 9231): -0.212
- PNMA1 log2FC (Gene 9240): 0.459
- NOG log2FC (Gene 9241): -0.308
- CRLF1 log2FC (Gene 9244): 0.144
- STK17B log2FC (Gene 9262): 0.429
- STK17A log2FC (Gene 9263): 0.011
- BCL7C log2FC (Gene 9274): -0.197
- TAOK2 log2FC (Gene 9344): -0.249
- SLIT2 log2FC (Gene 9353): 0.341
- SLC9A3R1 log2FC (Gene 9368): -0.528
- TJP2 log2FC (Gene 9414): 0.196
- NTN1 log2FC (Gene 9423): -0.198
- ITM2B log2FC (Gene 9445): 0.317
- AIM2 log2FC (Gene 9447): -0.062
- LY86 log2FC (Gene 9450): -0.203
- EIF2AK3 log2FC (Gene 9451): 0.495
- HAND2 log2FC (Gene 9464): -0.691
- ATG5 log2FC (Gene 9474): -0.728
- ROCK2 log2FC (Gene 9475): 0.195
- MAPK8IP1 log2FC (Gene 9479): 0.085
- SLC25A27 log2FC (Gene 9481): -0.081
- PSMF1 log2FC (Gene 9491): -0.344
- LITAF log2FC (Gene 9516): -0.833
- EEF1E1 log2FC (Gene 9521): 0.110
- BAG4 log2FC (Gene 9530): 0.152
- BAG3 log2FC (Gene 9531): -0.812
- EI24 log2FC (Gene 9538): -0.583
- BCAR1 log2FC (Gene 9564): -0.480
- BRE log2FC (Gene 9577): -0.205
- RNF7 log2FC (Gene 9616): -0.244
- TRAF4 log2FC (Gene 9618): -0.924
- AATK log2FC (Gene 9625): 1.492
- IKBKE log2FC (Gene 9641): -0.667
- PPM1F log2FC (Gene 9647): -0.302
- RAPGEF2 log2FC (Gene 9693): 0.948
- ESPL1 log2FC (Gene 9700): 0.721
- HERPUD1 log2FC (Gene 9709): 0.170
- SLK log2FC (Gene 9748): 0.857
- BCLAF1 log2FC (Gene 9774): 0.632
- KIAA0141 log2FC (Gene 9812): 0.468
- RB1CC1 log2FC (Gene 9821): 1.484
- ARHGEF11 log2FC (Gene 9826): -0.060
- ARHGEF17 log2FC (Gene 9828): 0.506
- MELK log2FC (Gene 9833): 0.254
- PSMD6 log2FC (Gene 9861): 0.158
- ARNT2 log2FC (Gene 9915): 0.025
- THOC1 log2FC (Gene 9984): 0.375
- CASP8AP2 log2FC (Gene 9994): 0.614
- SRA1 log2FC (Gene 10011): -0.916
- PDCD6IP log2FC (Gene 10015): 0.603
- PDCD6 log2FC (Gene 10016): -0.491
- BCL2L11 log2FC (Gene 10018): 0.088
- PARP2 log2FC (Gene 10038): 0.326
- DNAJB6 log2FC (Gene 10049): 0.183
- DNM1L log2FC (Gene 10059): 0.444
- PDCD7 log2FC (Gene 10081): 0.098
- PPIF log2FC (Gene 10105): -1.136
- FEM1B log2FC (Gene 10116): -0.374
- BCAP31 log2FC (Gene 10134): -0.357
- RBM5 log2FC (Gene 10181): 0.638
- RNF41 log2FC (Gene 10193): 0.278
- PSME3 log2FC (Gene 10197): -1.222
- DHRS2 log2FC (Gene 10202): 0.281
- TOPORS log2FC (Gene 10210): 0.598
- PSMD14 log2FC (Gene 10213): 0.153
- SPRY2 log2FC (Gene 10253): -0.930
- NET1 log2FC (Gene 10276): 0.503
- UBE4B log2FC (Gene 10277): -0.565
- SAP18 log2FC (Gene 10284): 0.198
- TRAIP log2FC (Gene 10293): 0.566
- MAEA log2FC (Gene 10296): -0.106
- PAK4 log2FC (Gene 10298): -0.420
- RTN3 log2FC (Gene 10313): -0.192
- CITED2 log2FC (Gene 10370): 2.312
- SEMA3A log2FC (Gene 10371): 0.050
- DLC1 log2FC (Gene 10395): -1.010
- GNB2L1 log2FC (Gene 10399): -0.033
- YAP1 log2FC (Gene 10413): 0.172
- CFDP1 log2FC (Gene 10428): 0.411
- C1D log2FC (Gene 10438): 0.246
- ACAA2 log2FC (Gene 10449): 0.115
- VAV3 log2FC (Gene 10451): 2.272
- STK25 log2FC (Gene 10494): 0.213
- SEMA4D log2FC (Gene 10507): 0.274
- MYBBP1A log2FC (Gene 10514): -0.303
- CIB1 log2FC (Gene 10519): -0.082
- ATG7 log2FC (Gene 10533): -0.414
- HTATIP2 log2FC (Gene 10553): 0.204
- ERN2 log2FC (Gene 10595): -0.680
- RBCK1 log2FC (Gene 10616): -0.315
- STAMBP log2FC (Gene 10617): 0.275
- IVNS1ABP log2FC (Gene 10625): 0.167
- TXNIP log2FC (Gene 10628): 2.206
- RRAGA log2FC (Gene 10670): -0.315
- PNMA2 log2FC (Gene 10687): -0.058
- CHL1 log2FC (Gene 10752): 0.036
- NES log2FC (Gene 10763): -0.277
- PLK2 log2FC (Gene 10769): -0.927
- ZMYND11 log2FC (Gene 10771): 0.395
- NEK6 log2FC (Gene 10783): -0.675
- NCKAP1 log2FC (Gene 10787): 0.619
- ZNF268 log2FC (Gene 10795): 0.176
- PPP1R13L log2FC (Gene 10848): 0.642
- LILRB1 log2FC (Gene 10859): -0.213
- MRPS30 log2FC (Gene 10884): 0.033
- PROKR1 log2FC (Gene 10887): -0.254
- PPARGC1A log2FC (Gene 10891): 0.154
- MALT1 log2FC (Gene 10892): -0.458
- JTB log2FC (Gene 10899): -0.072
- BLCAP log2FC (Gene 10904): -0.472
- EDAR log2FC (Gene 10913): -0.571
- RNPS1 log2FC (Gene 10921): -0.284
- FASTK log2FC (Gene 10922): -0.187
- PRDX3 log2FC (Gene 10935): 0.328
- MLLT11 log2FC (Gene 10962): -0.868
- YWHAQ log2FC (Gene 10971): 0.144
- IL24 log2FC (Gene 11009): -0.212
- RIPK3 log2FC (Gene 11035): -0.030
- PIM2 log2FC (Gene 11040): -0.544
- DIDO1 log2FC (Gene 11083): -0.398
- FAF1 log2FC (Gene 11124): 0.215
- CAPN10 log2FC (Gene 11132): -0.148
- NISCH log2FC (Gene 11188): 0.538
- CHEK2 log2FC (Gene 11200): 0.111
- AKAP13 log2FC (Gene 11214): -0.354
- DDX20 log2FC (Gene 11218): 0.280
- PDCD10 log2FC (Gene 11235): 0.466
- GABARAP log2FC (Gene 11337): 0.401
- ATF5 log2FC (Gene 22809): -1.254
- PHLDA1 log2FC (Gene 22822): -2.154
- CARD8 log2FC (Gene 22900): 0.156
- SNW1 log2FC (Gene 22938): 0.538
- TRIM32 log2FC (Gene 22954): -0.315
- ACIN1 log2FC (Gene 22985): -0.228
- TRIM35 log2FC (Gene 23087): 0.205
- KIF1B log2FC (Gene 23095): 0.163
- PSME4 log2FC (Gene 23198): -0.072
- ARHGEF9 log2FC (Gene 23229): 0.137
- PACS2 log2FC (Gene 23241): -0.041
- MCF2L log2FC (Gene 23263): 0.306
- TRIM2 log2FC (Gene 23321): 0.862
- ARHGEF12 log2FC (Gene 23365): 0.170
- PPP1R13B log2FC (Gene 23368): 0.064
- NCSTN log2FC (Gene 23385): 0.292
- ADNP log2FC (Gene 23394): 0.175
- SIRT1 log2FC (Gene 23411): 1.169

Reference: paper PMC4303209, “A novel phosphatidylinositol 3-kinase (PI3K) inhibitor directs a potent FOXO-dependent, p53-independent cell cycle arrest phenotype characterized by the differential induction of a subset of FOXO-regulated genes” (Breast Cancer Research : BCR, 2014)
